Data from US20230257351A1, “SUBSTITUTED N-[…] HAVING P2X4 RECEPTOR ANTAGONISTIC ACTIVITY” (Bayer Aktiengesellschaft, priority 2020, published 2023).

Target: T1, human P2X4 (Homo sapiens, UniProt Q99571)
T1 construct: expressed in transfected cells
T1 sequence (Q99571 1-388): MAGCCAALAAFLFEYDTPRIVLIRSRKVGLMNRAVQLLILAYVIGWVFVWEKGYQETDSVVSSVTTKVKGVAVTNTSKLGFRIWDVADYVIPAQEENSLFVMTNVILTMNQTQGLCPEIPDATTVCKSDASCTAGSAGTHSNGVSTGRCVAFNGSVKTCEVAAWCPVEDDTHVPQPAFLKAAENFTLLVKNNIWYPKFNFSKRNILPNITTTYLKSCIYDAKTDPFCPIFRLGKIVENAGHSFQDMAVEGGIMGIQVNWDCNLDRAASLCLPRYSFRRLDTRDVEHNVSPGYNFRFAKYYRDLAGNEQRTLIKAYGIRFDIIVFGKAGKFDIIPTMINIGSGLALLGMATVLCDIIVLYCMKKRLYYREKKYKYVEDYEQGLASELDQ
Assay: Human P2X4 HEK Cell FLIPR Assay
Format: cell-based
Details: HEK293 stably expressing human P2X4, agonist Bz-ATP 3 μM (EC80); for IC50: read-out: Human P2X4 HEK Cells (FLIPR Assay) avg IC50
Procedure, shortened: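 HEK293 cells stably expressing human P2X4 were loaded with Fluo8-AM (30 min, 37 °C, HBSS/HEPES pH 7.4 with probenecid), then preincubated 30 min at room temperature with compound, 25 μM–1 nM final, 0.5% DMSO. Bz-ATP-evoked calcium fluorescence was read on FLIPR; data were normalized to agonist control and given a four-parameter fit for IC50.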

| SMILES | Human P2X4 HEK Cells (FLIPR Assay) avg Efficacy | IC50 |
| --- | --- | --- |
| COc1c(F)cc(N(C(C)=O)c2cc(NC(=O)Cc3c(Cl)cccc3Cl)ccn2)cc1F [Example 99, N-{4-[2-(2,6-dichlorophenyl)acetamido]pyridin-2-yl}-N-(3,5-difluoro-4-methoxyphenyl)acetamide] | 95% | 449 nM |
| CC(=O)N(c1cc(NC(=O)Cc2cccc(F)c2Cl)ccn1)c1ccccc1Cl [Example 108, N-{4-[2-(2-chloro-3-fluorophenyl)acetamido]pyridin-2-yl}-N-(2-chlorophenyl)acetamide] | 97% | 769 nM |
| CC(=O)N(c1cccc(C(F)(F)F)c1)c1cc(NC(=O)Cc2c(Cl)cccc2Cl)ccn1 [Example 9, N-{4-[2-(2,6-dichlorophenyl)acetamido]pyridin-2-yl}-N-[3-(trifluoromethyl)phenyl]acetamide] | 99% | 749 nM |
| CC(=O)N(c1ccc(OC(F)F)cc1)c1cc(NC(=O)Cc2cccc(F)c2Cl)ccn1 [Example 48, N-{4-[2-(2-chloro-3-fluorophenyl)acetamido]pyridin-2-yl}-N-[4-(difluoromethoxy)phenyl]acetamide] | 99% | 579 nM |
| COc1ccc(N(C(C)=O)c2cc(NC(=O)Cc3ccc(F)cc3Cl)ccn2)cc1F [Example 78, N-{4-[2-(2-chloro-4-fluorophenyl)acetamido]pyridin-2-yl}-N-(3-fluoro-4-methoxyphenyl)acetamide] | 94% | 573 nM |
| CC(=O)N(c1cc(NC(=O)Cc2c(Cl)cccc2Cl)ccn1)c1ccc(C(F)(F)F)cc1F [Example 120, N-{4-[2-(2,6-dichlorophenyl)acetamido]pyridin-2-yl}-N-[2-fluoro-4-(trifluoromethyl)phenyl]acetamide] | 102% | 871 nM |
| COc1cc(F)cc(N(C(C)=O)c2cc(NC(=O)Cc3ccccc3Cl)ccn2)c1 [Example 161, N-{4-[2-(2-Chlorphenyl)acetamido]pyridin-2-yl}-N-(3-fluor-5-methoxyphenyl)acetamide] | 101% | 479 nM |
| CC(=O)N(c1cc(NC(=O)Cc2cccc(F)c2Cl)ccn1)c1cccc(F)c1F [Example 124, N-{4-[2-(2-chloro-3-fluorophenyl)acetamido]pyridin-2-yl}-N-(2,3-difluorophenyl)acetamide] | 94% | 289 nM |
| COc1cc(N(C(C)=O)c2cc(NC(=O)Cc3c(Cl)cccc3Cl)ccn2)ccc1F [Example 104, N-{4-[2-(2,6-dichlorophenyl)acetamido]pyridin-2-yl}-N-(4-fluoro-3-methoxyphenyl)acetamide] | 96% | 846 nM |
| CC(=O)N(c1cc(F)c(C)c(F)c1)c1cc(NC(=O)Cc2ccc(F)cc2Cl)ccn1 [Example 93, N-{4-[2-(2-chloro-4-fluorophenyl)acetamido]pyridin-2-yl}-N-(3,5-difluoro-4-methylphenyl)acetamide] | 98% | 705 nM |
| COc1c(F)cc(N(C(C)=O)c2cc(NC(=O)Cc3ccc(F)cc3Cl)ccn2)cc1F [Example 97, N-{4-[2-(2-chloro-4-fluorophenyl)acetamido]pyridin-2-yl}-N-(3,5-difluoro-4-methoxyphenyl)acetamide] | 89% | 461 nM |
| CC(=O)N(c1ccc(S(C)(=O)=O)c(Cl)c1)c1cc(NC(=O)Cc2ccccc2Cl)ccn1 [Example 157, N-[3-Chlor-4-(methylsulfonyl)phenyl]-N-{4-[2-(2-chlorphenyl)acetamido]pyridin-2-yl}acetamide] | 97% | 644 nM |
| CC(=O)N(c1cc(F)cc(C#N)c1)c1cc(NC(=O)Cc2c(F)cccc2Cl)ccn1 [Example 148, N-{4-[2-(2-Chlor-6-fluorphenyl)acetamido]pyridin-2-yl}-N-(3-cyan-5-fluorphenyl)acetamide] | 96% | 436 nM |
| CC(=O)N(c1ccc(F)cc1)c1cc(NC(=O)Cc2c(F)cccc2Cl)cnn1 [Example 189, N-{5-[2-(2-chloro-6-fluorophenyl)acetamido]pyridazin-3-yl}-N-(4-fluorophenyl)acetamide] | 93% | 654 nM |
| CC(=O)N(c1cc(NC(=O)Cc2c(F)cccc2Cl)ccn1)c1ccc(F)cc1Cl [Example 153, N-(2-Chlor-4-fluorphenyl)-N-{4-[2-(2-chlor-6-fluorphenyl)acetamido]pyridin-2-yl}acetamide] | 102% | 476 nM |
| CC(=O)N(c1cc(F)cc(F)c1)c1cc(NC(=O)Cc2c(Cl)cccc2Cl)cnn1 [Example 204, N-{5-[2-(2,6-dichlorophenyl)acetamido]pyridazin-3-yl}-N-(3,5-difluorophenyl)acetamide] | 95% | 383 nM |
| CC(=O)N(c1ccc(Cl)c(C#N)c1)c1cc(NC(=O)Cc2ccccc2Cl)ccn1 [Example 16, N-(4-chloro-3-cyanophenyl)-N-{4-[2-(2-chlorophenyl)acetamido]pyridin-2-yl}acetamide] | 95% | 388 nM |
| CC(=O)N(c1cc(C)cc(C#N)c1)c1cc(NC(=O)Cc2cccc(F)c2Cl)ccn1 [Example 177, N-{4-[2-(2-Chlor-3-fluorphenyl)acetamido]pyridin-2-yl}-N-(3-cyan-5-methylphenyl)acetamide] | 96% | 578 nM |
| CCc1cc(Cl)c(CC(=O)Nc2ccnc(N(C(C)=O)c3ccc(F)c(F)c3)c2)c(Cl)c1 [Example 75, N-{4-[2-(2,6-dichloro-4-ethylphenyl)acetamido]pyridin-2-yl}-N-(3,4-difluorophenyl)acetamide] | 96% | 919 nM |
| CC(=O)N(c1ccccc1)c1cc(NC(=O)Cc2c(F)cccc2Cl)ccn1 [Example 28, N-{4-[2-(2-chloro-6-fluorophenyl)acetamido]pyridin-2-yl}-N-phenylacetamide] | 91% | 777 nM |
| CC(=O)N(c1cccc(OC(F)(F)F)c1)c1cc(NC(=O)Cc2ccccc2Cl)ccn1 [Example 102, N-{4-[2-(2-chlorophenyl)acetamido]pyridin-2-yl}-N-[3-(trifluoromethoxy)phenyl]acetamide] | 99% | 937 nM |
| CC(=O)N(c1cc(NC(=O)Cc2cccc(C(F)(F)F)c2Cl)ccn1)c1cccc(F)c1F [Example 121, N-(4-{2-[2-chloro-3-(trifluoromethyl)phenyl]acetamido}pyridin-2-yl)-N-(2,3-difluorophenyl)acetamide] | 97% | 843 nM |
| CC(=O)N(c1ccc(F)cc1)c1cc(NC(=O)Cc2cccc(F)c2Cl)cnn1 [Example 191, N-{5-[2-(2-chloro-3-fluorophenyl)acetamido]pyridazin-3-yl}-N-(4-fluorophenyl)acetamide] | 92% | 739 nM |
| CC(=O)N(c1cccc(F)c1)c1cc(NC(=O)Cc2c(Cl)cccc2Cl)cnn1 [Example 194, N-{5-[2-(2,6-dichlorophenyl)acetamido]pyridazin-3-yl}-N-(3-fluorophenyl)acetamide] | 96% | 407 nM |
| CC(=O)N(c1cc(F)cc(C#N)c1)c1cc(NC(=O)Cc2cccc(F)c2Cl)ccn1 [Example 147, N-{4-[2-(2-Chlor-3-fluorphenyl)acetamido]pyridin-2-yl}-N-(3-cyan-5-fluorphenyl)acetamide] | 97% | 384 nM |
| CC(=O)N(c1cc(NC(=O)Cc2cccc(C(F)(F)F)c2Cl)ccn1)c1cc(F)ccc1Cl [Example 110, N-(2-chloro-5-fluorophenyl)-N-(4-{2-[2-chloro-3-(trifluoromethyl)phenyl]acetamido}pyridin-2-yl)acetamide] | 95% | 745 nM |
| CC(=O)N(c1cc(F)cc(F)c1)c1cc(NC(=O)Cc2ccccc2Cl)cnn1 [Example 205, N-{5-[2-(2-chlorophenyl)acetamido]pyridazin-3-yl}-N-(3,5-difluorophenyl)acetamide] | 93% | 433 nM |
| CC(=O)N(c1cc(NC(=O)Cc2ccccc2Cl)ccn1)c1ccc(C)cc1C [Example 170, N-{4-[2-(2-Chlorphenyl)acetamido]pyridin-2-yl}-N-(2,4-dimethylphenyl)acetamide] | 104% | 468 nM |
| CC(=O)N(c1ccc(F)c(F)c1)c1cc(NC(=O)Cc2ccc(F)cc2Cl)cnn1 [Example 202, N-{5-[2-(2-chloro-4-fluorophenyl)acetamido]pyridazin-3-yl}-N-(3,4-difluorophenyl)acetamide] | 94% | 557 nM |
| CC(=O)N(c1ccccc1)c1cc(NC(=O)Cc2ccc(F)cc2Cl)cnn1 [Example 188, N-{5-[2-(2-chloro-4-fluorophenyl)acetamido]pyridazin-3-yl}-N-phenylacetamide] | 98% | 829 nM |
